For orientation: IC50 means the point on the concentration scale where inhibition reaches its midpoint.

The subject of one data set is Karpas-299 cells. Put plainly: Cellular Toxicity Test (1), CellTiter-Glo cell viability. Type of data set: cell-based, human. To be noted: Homo sapiens, 96 h, cultured 4 days, cell viability. The procedure:
Karpas-299 cells (European Collection of Authenticated Cell Cultures, hereinafter, ECACC), which are human lymphoma cell lines, were cultured in RPMI 1640 (GIBCO) containing 10% fetal bovine serum (MP Biomedicals) (hereinafter, referred to as the “culture medium”). Cells were prepared to be 2×10^6 cells/mL in the culture medium, and were added to a 96 well microplate for cell culturing in an amount of 50 μL for each well. Compounds of Examples or Comparative Example compound 4 times diluted with the culture medium in 8 stages were added to the microplate in an amount of 50 μL for each well. These were cultured at 37 degree under 5% CO2 for 4 days. After culturing, the microplate was taken out from the incubator, and was left at rest at room temperature for 10 minutes. To each well, 50 μL of CellTiter-Glo Luminescent Cell Viability Assay (Promega) was added, and the resultant mixture was stirred. This mixture was incubated at a dark place for 20 minutes. Using a microplate luminometer, luminescence at each well was measured, thereby calculating the cell viability. In addition, from the value of cell viability, the IC50 value was calculated.
The IC50 value was calculated by the following formula: IC50 (nM)=antilog(LOG10(a/b)×(e−d)/(c−d)+LOG10b) a: concentration a of test substance b: concentration b of test substance c: cell viability upon adding test substance with concentration a d: cell viability upon adding test substance with concentration b e: intermediate value between maximum and minimum among cell viabilities upon adding test substances with different concentrations (a and b are concentrations crossing the cell viability e, and a>b is indicated).
The cell viability at each concentration was calculated by the following formula: Cell Viability (%)=a′/b′×100 a′: mean value of luminescence amount of wells to which test substance was added (n=6) b′: mean value of luminescence amount of wells to which test substance was not added (n=6) (n represents the number of evaluations performed per test substance concentration).

Data set [1] in a line: Membrane Permeability Test, parallel artificial membrane permeability assay (PAMPA). Type of data set: in vitro ADME. The following applies: pH 7.4, pH7.4, 37° C., read-out: Pe (pH7.4). As for the experimental part:
By the parallel artificial membrane permeability assay (PAMPA), the membrane permeability of compounds of Examples was examined as follows: To the donor plate, System solution (pION inc.) and GIT Lipid-0 (pION inc.) were added in an amount of 200 μL and 4 μL for each well, respectively. To the acceptor plate, Acceptor Sink Buffer (pION inc.) was added in an amount of 200 μL. Both plates were superposed and incubated at 37° C. for 4 hours, and then, UVs in the solutions on the side of acceptor and on the side of donor were measured with an UV plate reader (190 to 500 nm). Compounds with poor UV absorption were measured by LC-MS. The permeability coefficient Pe (10^−6 cm/sec) of the drug was calculated by the following formula.
[formula] • ra=(VD/VA)Pa^(A-D)/Pa^(D-A)=rVPe^(A-D)/Pa^(D-A) • rV=(VD/VA) • VD=volume of doner well • VA=volume of acceptor well • t=permeation time • τ^SS=steady state time • R=retention • CD=CA=concentration in donor and acceptor well

For the compound `CN[C@H](C(=O)N[C@H](C(=O)N(C)[C@H](/C=C(\C)C(=O)N[C@@H](CCC(=O)NCCN1C(=O)C=CC1=O)C(=O)O)C(C)C)C(C)(C)C)C(C)(C)c1ccccc1` [Example M11], the IC50 in the data set on Karpas-299 cells is > 1000 nM. Moreover, the Papp at 4 h in data set [1] is < 0.1 ×10⁻⁶ cm/s. The compound `CN[C@H](C(=O)N[C@H](C(=O)N(C)[C@H](/C=C(\C)C(=O)N[C@@H](CCCCNC(=O)CCCN1C(=O)C=CC1=O)C(=O)O)C(C)C)C(C)(C)C)C(C)(C)c1cn(C)c2ccccc12` [Example M27] came in with an IC50 in the data set with Karpas-299 cells of 192 nM. Further, the Papp at 4 h in data set [1] was < 0.1 ×10⁻⁶ cm/s. `CN[C@H](C(=O)N[C@H](C(=O)N(C)[C@H](/C=C(\C)C(=O)N[C@H](CCC(=O)N[C@@H](CCCCNC(=O)CCCCCN1C(=O)C=CC1=O)C(=O)O)C(=O)O)C(C)C)C(C)(C)C)C(C)(C)c1cn(C)c2ccccc12` [Example M2, N-{(2E,4S)-2,5-Dimethyl-4-[methyl(N,β,β,1-tetramethyl-L-tryptophyl-3-methyl-L-valyl)amino]hex-2-enoyl}-D-γ-glutamyl-N^6-[6-(2,5-dioxo-2,5-dihydro-1H-pyrrol-1-yl)hexanoyl]-L-lysine] registered an IC50 in the data set with Karpas-299 cells of 780 nM. Also, the Papp at 4 h in data set [1] is < 0.1 ×10⁻⁶ cm/s. As for `CN[C@H](C(=O)N[C@H](C(=O)N(C)[C@H](/C=C(\C)C(=O)N[C@H](CCC(=O)NCCCN1C(=O)C=CC1=O)C(=O)O)C(C)C)C(C)(C)C)C(C)(C)c1ccccc1` [Example M16], the IC50 with Karpas-299 cells is 573 nM. Take `CN[C@H](C(=O)N[C@H](C(=O)N(C)[C@H](/C=C(\C)C(=O)N[C@H](CCC(=O)NCCN1C(=O)C=CC1=O)C(=O)O)C(C)C)C(C)(C)C)C(C)(C)c1cccc(C(F)(F)F)c1` [Example M31]: in the data set with Karpas-299 cells, the IC50 amounted to 197 nM. In addition, in data set [1], the Papp at 4 h was 1 ×10⁻⁶ cm/s. Take `CN[C@H](C(=O)N[C@H](C(=O)N(C)[C@H](/C=C(\C)C(=O)N[C@@H](CC(=O)O)C(=O)NCCN1C(=O)C=CC1=O)C(C)C)C(C)(C)C)C(C)(C)c1ccccc1` [Example M14]: the IC50 in the data set on Karpas-299 cells was > 1000 nM. Take `C/C(=C\[C@H](C(C)C)N(C)C(=O)[C@@H](NC(=O)[C@H]1CCCCN1C(C)C)C(C)(C)C)C(=O)N[C@H](CCC(=O)NCCN1C(=O)C=CC1=O)C(=O)O` [Example M43]: half-maximal inhibition with Karpas-299 cells (IC50) was put at 3.8 nM. Besides, the Papp at 4 h in data set [1] was found to be 2 ×10⁻⁶ cm/s. Regarding `CN[C@H](C(=O)N[C@H](C(=O)N(C)[C@H](/C=C(\C)C(=O)N[C@H](CC(=O)O)C(=O)NCCN1C(=O)C=CC1=O)C(C)C)C(C)(C)C)C(C)(C)c1ccccc1` [Example M13], it took 999 nM to reach half-maximal inhibition in the data set with Karpas-299 cells (IC50). `CN[C@H](C(=O)N[C@H](C(=O)N(C)[C@H](/C=C(\C)C(=O)N[C@@H](CCC(=O)NCCN1C(=O)C=CC1=O)C(=O)O)C(C)C)C(C)(C)C)C(C)(C)c1cn(C)c2ccccc12` [Example M18] displayed an IC50 in the data set on Karpas-299 cells of 148 nM. Further, in data set [1], the Papp at 4 h was < 0.1 ×10⁻⁶ cm/s. The compound `CN[C@H](C(=O)N[C@H](C(=O)N(C)[C@H](/C=C(\C)C(=O)N[C@H](CCC(=O)NCCN1C(=O)C=CC1=O)C(=O)O)C(C)C)C(C)(C)C)C(C)(C)c1cccc(OC)c1` [Example M37] displayed an IC50 in the data set with Karpas-299 cells of 403 nM. Moreover, the Papp at 4 h in data set [1] is < 0.1 ×10⁻⁶ cm/s. In the same order, the values of `CN[C@H](C(=O)N[C@H](C(=O)N(C)[C@H](/C=C(\C)C(=O)N[C@H](CCC(=O)NCCN1C(=O)C=CC1=O)C(=O)O)C(C)C)C(C)(C)C)C(C)(C)c1cccs1` [Example M39] are 379 nM and < 0.1 ×10⁻⁶ cm/s. For `CN[C@H](C(=O)N[C@H](C(=O)N(C)[C@H](/C=C(\C)C(=O)N[C@H](CCC(=O)NCCN1C(=O)C=CC1=O)C(=O)O)C(C)C)C(C)(C)C)C(C)(C)c1ccc(C(=O)O)cc1` [Example M36], in that order: > 1000 nM and 0.6 ×10⁻⁶ cm/s.

As to `CN[C@H](C(=O)N[C@H](C(=O)N(C)[C@H](/C=C(\C)C(=O)N[C@@H](CCC(=O)O)C(=O)NCCN1C(=O)C=CC1=O)C(C)C)C(C)(C)C)C(C)(C)c1ccccc1` [Example M12], the midpoint of inhibition with Karpas-299 cells, the IC50, lay at 29.8 nM. Moreover, in data set [1], the Papp at 4 h is < 0.1 ×10⁻⁶ cm/s. For `CN[C@H](C(=O)N[C@H](C(=O)N(C)[C@H](/C=C(\C)C(=O)N[C@@H](CC(=O)O)C(=O)NCCN1C(=O)C=CC1=O)C(C)C)C(C)(C)C)C(C)(C)c1cn(C)c2ccccc12` [Example M21], in that order: 226 nM and < 0.1 ×10⁻⁶ cm/s. For `CN[C@H](C(=O)N[C@H](C(=O)N(C)[C@H](/C=C(\C)C(=O)NCCCC[C@@H](NC(=O)CCCN1C(=O)C=CC1=O)C(=O)O)C(C)C)C(C)(C)C)C(C)(C)c1ccccc1` [Example M28], in that order: 50.8 nM and < 0.1 ×10⁻⁶ cm/s. Turning to `CN[C@@H](C(=O)N[C@H](C(=O)N(C)[C@H](/C=C(\C)C(=O)N[C@H](CCC(=O)NCCN1C(=O)C=CC1=O)C(=O)O)C(C)C)C(C)(C)C)C(C)(C)c1cccc(Br)c1` [Example M45], the IC50 in the data set with Karpas-299 cells stood at 189 nM. The Papp at 4 h in data set [1] was 4 ×10⁻⁶ cm/s.

`C/C(=C\[C@H](C(C)C)N(C)C(=O)[C@@H](NC(=O)[C@@H](NC(=O)CCCCCN1C(=O)C=CC1=O)C(C)(C)c1cn(C)c2ccccc12)C(C)(C)C)C(=O)N[C@H](CCC(=O)O)C(=O)O` [Example M48]: in the data set with Karpas-299 cells, the IC50 was > 1000 nM. Further, the Papp at 4 h in data set [1] amounted to 0.3 ×10⁻⁶ cm/s.

In the data set on Karpas-299 cells, `CN[C@H](C(=O)N[C@H](C(=O)N(C)[C@H](/C=C(\C)C(=O)N[C@H](CCC(=O)NCCN1C(=O)C=CC1=O)C(=O)O)C(C)C)C(C)(C)C)C(C)(C)c1cccc(C#N)c1` [Example M35] had an IC50 of 8.6 nM. In data set [1], the Papp at 4 h stood at 0.8 ×10⁻⁶ cm/s. For `CN[C@H](C(=O)N[C@H](C(=O)N(C)[C@H](/C=C(\C)C(=O)N[C@H](CCC(=O)NCCN1C(=O)C=CC1=O)C(=O)O)C(C)C)C(C)(C)C)C(C)(C)c1ccc2ccccc2c1` [Example M40], in that order: 176 nM and < 0.1 ×10⁻⁶ cm/s.

As for `CN[C@H](C(=O)N[C@H](C(=O)N(C)[C@H](/C=C(\C)C(=O)N[C@H](CCC(=O)O)C(=O)NCCN1C(=O)C=CC1=O)C(C)C)C(C)(C)C)C(C)(C)c1ccccc1` [Example M15], the IC50 with Karpas-299 cells was > 1000 nM.

Take `C/C(=C\[C@H](C(C)C)N(C)C(=O)[C@@H](NC(=O)[C@@H](N(C)C)C(C)(C)c1ccccc1)C(C)(C)C)C(=O)N[C@H](CCC(=O)NCCN1C(=O)C=CC1=O)C(=O)O` [Example M49, N^2—((S,E)-4-((S)-2-((S)-2-(Dimethylamino)-3-methyl-3-phenylbutanamido)-N,3,3-trimethylbutanamido)-2,5-dimethylhex-2-enoyl)-N^5-(2-(2,5-dioxo-2,5-dihydro-1H-pyrrolo-1-yl)ethyl)-D-glutamine]: the half-maximal inhibitory concentration (IC50) in the data set with Karpas-299 cells was > 1000 nM.

In the data set with Karpas-299 cells, `CN[C@H](C(=O)N[C@H](C(=O)N(C)[C@H](/C=C(\C)C(=O)N[C@H](CCC(=O)O)C(=O)NCCN1C(=O)C=CC1=O)C(C)C)C(C)(C)C)C(C)(C)c1cn(C)c2ccccc12` [Example M25] registered a concentration for half-maximal inhibition (IC50) of 140 nM. Moreover, the Papp at 4 h in data set [1] is < 0.1 ×10⁻⁶ cm/s. The compound `CN[C@H](C(=O)N[C@H](C(=O)N(C)[C@H](/C=C(\C)C(=O)N[C@H](CCC(=O)N[C@@H](CCCCNC(=O)CCN1C(=O)C=CC1=O)C(=O)O)C(=O)O)C(C)C)C(C)(C)C)C(C)(C)c1cn(C)c2ccc(F)cc12` [Example M26] returned an IC50 in the data set on Karpas-299 cells of 80.1 nM. Moreover, in data set [1], the Papp at 4 h is < 0.1 ×10⁻⁶ cm/s. In the same order, the values of `CN[C@H](C(=O)N[C@H](C(=O)N(C)[C@H](/C=C(\C)C(=O)N[C@@H](CC(=O)NCCN1C(=O)C=CC1=O)C(=O)O)C(C)C)C(C)(C)C)C(C)(C)c1cn(C)c2ccccc12` [Example M19] are 169 nM and < 0.1 ×10⁻⁶ cm/s.

For `CN[C@H](C(=O)N[C@H](C(=O)N(C)[C@H](/C=C(\C)C(=O)N[C@H](CCC(=O)NCCN1C(=O)C=CC1=O)C(=O)O)C(C)C)C(C)(C)C)C(C)(C)c1cccc(F)c1` [Example M32], the IC50 with Karpas-299 cells stood at 616 nM. In addition, the Papp at 4 h in data set [1] was found to be 0.6 ×10⁻⁶ cm/s. For `CNC(C(=O)N[C@H](C(=O)N(C)[C@H](/C=C(\C)C(=O)N[C@H](CCC(=O)NCCN1C(=O)C=CC1=O)C(=O)O)C(C)C)C(C)(C)C)C(C)(C)c1ccc(O)cc1` (stereo partly drawn) [Example M34], the IC50 in the data set with Karpas-299 cells is 8 nM. The Papp at 4 h in data set [1] was 2.7 ×10⁻⁶ cm/s. For the compound `CNC(C(=O)N[C@H](C(=O)N(C)[C@H](/C=C(\C)C(=O)N[C@H](CCC(=O)O)C(=O)O)C(C)C)C(C)(C)C)C(C)(C)c1ccc(OC(=O)CCN2C(=O)C=CC2=O)cc1` (stereo partly drawn) [Example M30], in data set [1], the Papp at 4 h is < 0.1 ×10⁻⁶ cm/s.
